{
  "source": "ChEMBL document CHEMBL1201862",
  "about": "“PubChem BioAssay data set” (2004)",
  "test_in_all_cases": "NCI tumour cell line growth inhibition, 48 h",
  "key": {"[1]": {"system": "SK-OV-3"}, "[2]": {"system": "UACC-62"}, "[3]": {"system": "RPMI-8226"}, "[4]": {"system": "TK-10"}, "[5]": {"system": "UACC-257"}, "[6]": {"system": "LOX IMVI"}, "[7]": {"system": "HOP-62"}, "[8]": {"system": "SW-620"}, "[9]": {"system": "MDA-N"}, "[10]": {"system": "OVCAR-8"}, "[11]": {"system": "K562"}, "[12]": {"system": "COLO 205"}, "[13]": {"system": "CAKI-1"}, "[14]": {"system": "Malme-3M"}, "[15]": {"system": "EKVX"}, "[16]": {"system": "T47D"}, "[17]": {"system": "DU-145"}, "[18]": {"system": "786-0"}, "[19]": {"system": "SF-295"}, "[20]": {"system": "MOLT-4"}, "[21]": {"system": "RXF 393"}, "[22]": {"system": "SK-MEL-28"}, "[23]": {"system": "PC-3"}, "[24]": {"system": "NCI-H23"}, "[25]": {"system": "SK-MEL-5"}, "[26]": {"system": "MCF7"}, "[27]": {"system": "HCC 2998"}, "[28]": {"system": "HL-60"}, "[29]": {"system": "KM12"}, "[30]": {"system": "CCRF-CEM"}, "[31]": {"system": "MDA-MB-231"}, "[32]": {"system": "HCT-15"}, "[33]": {"system": "IGROV-1"}, "[34]": {"system": "SNB-75"}, "[35]": {"system": "HT-29"}, "[36]": {"system": "M14"}, "[37]": {"system": "SN12C"}, "[38]": {"system": "SR"}, "[39]": {"system": "A549"}, "[40]": {"system": "MDA-MB-435"}, "[41]": {"system": "OVCAR-5"}, "[42]": {"system": "OVCAR-4"}, "[43]": {"system": "NCI-H226"}, "[44]": {"system": "HCT-116"}, "[45]": {"system": "SNB-19"}, "[46]": {"system": "NCI-H522"}, "[47]": {"system": "OVCAR-3"}, "[48]": {"system": "SF-268"}, "[49]": {"system": "NCI/ADR-RES"}, "[50]": {"system": "ACHN"}, "[51]": {"system": "SF-539"}, "[52]": {"system": "UO-31"}, "[53]": {"system": "Hs-578T"}, "[54]": {"system": "HOP-92"}, "[55]": {"system": "U-251"}, "[56]": {"system": "NCI-H460"}, "[57]": {"system": "A498"}, "[58]": {"system": "SK-MEL-2"}},
  "note": "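Interpolation was linear, between the two tested concentrations surrounding the appropriate level; five concentrations were tested over 48 hours in 96-well plates. Here, GI50 denotes the concentration required for 50% inhibition of growth.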 Activity calls are given as the source filed them. Rule as the data show it: active = GI50 up to about 1.1 µM and inactive = higher.",
  "data": [
    {"smiles": "CC(=O)OCC12CCC3C4(C)CCCC(C)(C)C4CCC3(C)C1CC(C1=CC(=O)OC1O)O2", "note": "(stereo not given)", "values": [
      {"measurement": "GI50", "setting": "[1]", "value": "2.47 µM (inactive)"},
      {"measurement": "GI50", "setting": "[2]", "value": "1.8 µM (inactive)"},
      {"measurement": "GI50", "setting": "[3]", "value": "0.428 µM (active)"},
      {"measurement": "GI50", "setting": "[4]", "value": "1.9 µM (inactive)"},
      {"measurement": "GI50", "setting": "[5]", "value": "1.91 µM (inactive)"},
      {"measurement": "GI50", "setting": "[6]", "value": "1.18 µM (inactive)"},
      {"measurement": "GI50", "setting": "[7]", "value": "2.41 µM (inactive)"},
      {"measurement": "GI50", "setting": "[8]", "value": "1.29 µM (inactive)"},
      {"measurement": "GI50", "setting": "[9]", "value": "1.53 µM (inactive)"},
      {"measurement": "GI50", "setting": "[10]", "value": "1.38 µM (inactive)"},
      {"measurement": "GI50", "setting": "[11]", "value": "0.776 µM (active)"},
      {"measurement": "GI50", "setting": "[12]", "value": "1.83 µM (inactive)"},
      {"measurement": "GI50", "setting": "[13]", "value": "1.49 µM (inactive)"},
      {"measurement": "GI50", "setting": "[14]", "value": "1.05 µM (active)"},
      {"measurement": "GI50", "setting": "[15]", "value": "2.43 µM (inactive)"},
      {"measurement": "GI50", "setting": "[16]", "value": "1.88 µM (inactive)"},
      {"measurement": "GI50", "setting": "[17]", "value": "2.07 µM (inactive)"},
      {"measurement": "GI50", "setting": "[18]", "value": "1.09 µM (active)"},
      {"measurement": "GI50", "setting": "[19]", "value": "2.34 µM (inactive)"},
      {"measurement": "GI50", "setting": "[20]", "value": "0.248 µM (active)"},
      {"measurement": "GI50", "setting": "[21]", "value": "2.06 µM (inactive)"},
      {"measurement": "GI50", "setting": "[22]", "value": "1.53 µM (inactive)"},
      {"measurement": "GI50", "setting": "[23]", "value": "1.31 µM (inactive)"},
      {"measurement": "GI50", "setting": "[24]", "value": "1.69 µM (inactive)"},
      {"measurement": "GI50", "setting": "[25]", "value": "1.86 µM (inactive)"},
      {"measurement": "GI50", "setting": "[26]", "value": "1.24 µM (inactive)"},
      {"measurement": "GI50", "setting": "[27]", "value": "1.84 µM (inactive)"},
      {"measurement": "GI50", "setting": "[28]", "value": "0.513 µM (active)"},
      {"measurement": "GI50", "setting": "[29]", "value": "1.82 µM (inactive)"},
      {"measurement": "GI50", "setting": "[30]", "value": "0.303 µM (active)"},
      {"measurement": "GI50", "setting": "[31]", "value": "1.75 µM (inactive)"},
      {"measurement": "GI50", "setting": "[32]", "value": 0.92, "unit": "µM"},
      {"measurement": "GI50", "setting": "[33]", "value": "1.54 µM (inactive)"},
      {"measurement": "GI50", "setting": "[34]", "value": "1.76 µM (inactive)"},
      {"measurement": "GI50", "setting": "[35]", "value": "1.3 µM (inactive)"},
      {"measurement": "GI50", "setting": "[36]", "value": "1.42 µM (inactive)"},
      {"measurement": "GI50", "setting": "[37]", "value": "1.34 µM (inactive)"},
      {"measurement": "GI50", "setting": "[38]", "value": "0.244 µM (active)"},
      {"measurement": "GI50", "setting": "[39]", "value": "2.92 µM (inactive)"}
    ]},
    {"smiles": "O=c1ccn(-c2ccccn2)c(=O)n1-c1ccccn1", "values": [
      {"measurement": "GI50", "setting": "[40]", "value": "> 100 µM (inactive)"},
      {"measurement": "GI50", "setting": "[1]", "value": "> 100 µM (inactive)"},
      {"measurement": "GI50", "setting": "[3]", "value": "> 100 µM (inactive)"},
      {"measurement": "GI50", "setting": "[4]", "value": "> 100 µM (inactive)"},
      {"measurement": "GI50", "setting": "[5]", "value": "> 100 µM (inactive)"},
      {"measurement": "GI50", "setting": "[41]", "value": "> 100 µM (inactive)"},
      {"measurement": "GI50", "setting": "[6]", "value": "> 100 µM (inactive)"},
      {"measurement": "GI50", "setting": "[7]", "value": "> 100 µM (inactive)"},
      {"measurement": "GI50", "setting": "[42]", "value": "> 100 µM (inactive)"},
      {"measurement": "GI50", "setting": "[8]", "value": "> 100 µM (inactive)"},
      {"measurement": "GI50", "setting": "[9]", "value": "> 100 µM (inactive)"},
      {"measurement": "GI50", "setting": "[10]", "value": "> 100 µM (inactive)"},
      {"measurement": "GI50", "setting": "[11]", "value": "> 100 µM (inactive)"},
      {"measurement": "GI50", "setting": "[12]", "value": "> 100 µM (inactive)"},
      {"measurement": "GI50", "setting": "[43]", "value": "> 100 µM (inactive)"},
      {"measurement": "GI50", "setting": "[13]", "value": "> 100 µM (inactive)"},
      {"measurement": "GI50", "setting": "[14]", "value": "> 100 µM (inactive)"},
      {"measurement": "GI50", "setting": "[15]", "value": "> 100 µM (inactive)"},
      {"measurement": "GI50", "setting": "[16]", "value": "> 100 µM (inactive)"},
      {"measurement": "GI50", "setting": "[17]", "value": "> 100 µM (inactive)"},
      {"measurement": "GI50", "setting": "[18]", "value": "> 100 µM (inactive)"},
      {"measurement": "GI50", "setting": "[19]", "value": "> 100 µM (inactive)"},
      {"measurement": "GI50", "setting": "[20]", "value": "> 100 µM (inactive)"},
      {"measurement": "GI50", "setting": "[21]", "value": "> 100 µM (inactive)"},
      {"measurement": "GI50", "setting": "[22]", "value": "> 100 µM (inactive)"},
      {"measurement": "GI50", "setting": "[23]", "value": "> 100 µM (inactive)"},
      {"measurement": "GI50", "setting": "[24]", "value": "> 100 µM (inactive)"},
      {"measurement": "GI50", "setting": "[25]", "value": "> 100 µM (inactive)"},
      {"measurement": "GI50", "setting": "[26]", "value": "> 100 µM (inactive)"},
      {"measurement": "GI50", "setting": "[44]", "value": "> 100 µM (inactive)"},
      {"measurement": "GI50", "setting": "[45]", "value": "> 100 µM (inactive)"},
      {"measurement": "GI50", "setting": "[46]", "value": "> 100 µM (inactive)"},
      {"measurement": "GI50", "setting": "[47]", "value": "> 100 µM (inactive)"},
      {"measurement": "GI50", "setting": "[48]", "value": "> 100 µM (inactive)"},
      {"measurement": "GI50", "setting": "[27]", "value": "> 100 µM (inactive)"},
      {"measurement": "GI50", "setting": "[28]", "value": "> 100 µM (inactive)"},
      {"measurement": "GI50", "setting": "[29]", "value": "> 100 µM (inactive)"},
      {"measurement": "GI50", "setting": "[49]", "value": "> 100 µM (inactive)"},
      {"measurement": "GI50", "setting": "[50]", "value": "> 100 µM (inactive)"},
      {"measurement": "GI50", "setting": "[30]", "value": "> 100 µM (inactive)"},
      {"measurement": "GI50", "setting": "[31]", "value": "> 100 µM (inactive)"},
      {"measurement": "GI50", "setting": "[32]", "value": "> 100", "unit": "µM"},
      {"measurement": "GI50", "setting": "[33]", "value": "> 100 µM (inactive)"},
      {"measurement": "GI50", "setting": "[51]", "value": "> 100 µM (inactive)"},
      {"measurement": "GI50", "setting": "[34]", "value": "> 100 µM (inactive)"},
      {"measurement": "GI50", "setting": "[52]", "value": "> 100 µM (inactive)"},
      {"measurement": "GI50", "setting": "[35]", "value": "> 100 µM (inactive)"},
      {"measurement": "GI50", "setting": "[36]", "value": "> 100 µM (inactive)"},
      {"measurement": "GI50", "setting": "[37]", "value": "> 100 µM (inactive)"},
      {"measurement": "GI50", "setting": "[53]", "value": "> 100 µM (inactive)"},
      {"measurement": "GI50", "setting": "[54]", "value": "> 100 µM (inactive)"},
      {"measurement": "GI50", "setting": "[55]", "value": "> 100 µM (inactive)"},
      {"measurement": "GI50", "setting": "[56]", "value": "> 100 µM (inactive)"},
      {"measurement": "GI50", "setting": "[39]", "value": "> 100 µM (inactive)"},
      {"measurement": "GI50", "setting": "[57]", "value": "> 100 µM (inactive)"},
      {"measurement": "GI50", "setting": "[58]", "value": "> 100 µM (inactive)"}
    ]}
  ]
}
